The results in this text go back to US7456154B2 (priority 2001, dated 2008).

In one data set the test system is AChE-R mRNA. The experiment in a line: In situ hybridization of AChE-R mRNA in rat muscle. The class given is in vivo. To be noted: healthy and EAMG rats. The method, then: In situ hybridization: Tissues were fixed in 4% paraformaldehyde and cut into 7 μm paraffin embedded sections. Spinal cord sections were deparaffinized, rehydrated using serial ethanol dilutions and permeabilized with proteinase K (10 μg/ml at room temp.). Slides were exposed to 5′ biotinylated, fully 2′-oxymethylated AChE-R or AChE-S-specific 50-mer cRNA probes complementary to human ACHE pseudo-intron 4 or exon 6, respectively [Grisaru et al. (2001) id ibid.]. Hybridization was performed overnight at 52° C. in hybridization mixture containing 10 μg/ml probe, 50 μg/ml yeast tRNA, 50 μg/ml heparin and 50% formamide in 375 mM Na chloride, 37.5 mM Na citrate, pH 4.5. For monkey sections, the probe was constructed according to the human AChE-R sequence; for rat sections, according to the mouse sequence. Slides were washed to remove non-hybridized probe, blocked with 1% skim milk containing 0.01% Tween-20 and 2 mM levamisole, an alkaline phosphatase inhibitor used to suppress non-specific staining and incubate with streptavidin-alkaline phosphatase (Amersham Pharmacia). Fast Red™ substrate (Roche Diagnostics) was used for detection. DAPI staining (Sigma Chemical Co., St. Louis, Mo., USA) served to visualize nuclei. Microscope images were analyzed with Image Pro Plus 4.0 (Media Cybernetics) software. […]

For data set [1], the system named is EAMG rats. The experiment in a line: Electromyography: CMAP ratio under repetitive 3 Hz nerve stimulation in EAMG rats. The data set is classed as in vivo, rat. Particulars: for Effect on CMAP decline / muscle function in EAMG rats: comparable amounts, Table 1; for CMAP ratio (5th vs. 1st amplitude): average ± SEM; for Effect of oral administration on CMAP decline: oral gavage, 1000 μg/kg pyridostigmine, CMAP 1, 5, 24 h.

In data set [2] the test system is EAMG rats. In words: Repeated daily treatment of EAMG rats (5 days and 1 month): survival, body weight, status. The data set is classed as in vivo, rat. An excerpt: As shown in Example 5, unlike anti-cholinesterases, rEN101 afforded long-term maintenance of stable CMAP. This further enabled the inventors to test whether the cholinergic imbalance contributes to the physiological deterioration that is characteristic of EAMG. Rats were first treated with rEN101 once a day for 5 days, CMAPs being determined prior to each treatment. Both the efficacy of rEN101 in retrieving normal CMAP and its capacity to reduce the inter-animal variability in CMAP values reached similar levels to those of pyridostigmine (FIGS. 11A and 11B). However, the onset of response to pyridostigmine was more rapid (Table 1), while that observed with rEN101 was longer-lasting. Daily oral or i.v administration of rEN101 stabilized CMAPs over the entire course of treatment (FIG. 11B). In contrast, the effect of pyridostigmine wore off within several hours, causing pronounced fluctuations in muscle status (Table 1 and FIG. 11). Among the animals treated daily with pyridostigmine, 5 out of 6 died within the 5 day experimental course. In contrast, 6 out of 8 animals treated once-a-day with rEN101 via o.g. survived the full 5 day period. This conspicuous difference might reflect the susceptibility of EAMG rats to repeated anesthesia and CMAP measurements. In order to avoid these additional stresses and evaluate the effect of the antisense treatment on EAMG pathophysiology, the inventors subjected groups of moderately sick animals to 1 month of daily oral treatment with minimal interference. […] One way repeated measures ANOVA yielded P<0.05 for all other measures (AS vs. other treatments at 4 weeks). The effect of rEN101 on clinical symptoms was also corroborated by body weight changes. Rats treated with saline and Mestinon treated groups lost 13.5 and 11 g/animal, respectively, whereas animals treated with rEN101 gained, on average, 13 g during the treatment period. Thus, daily rEN101 administration promoted long-term change in the course of EAMG in rats with moderate to severe symptoms, under the same conditions in which untreated or pyridostigmine-treated animals deteriorated.

[3] abbreviates: intravenous, EAMG rats, 0 h, 50 μg/Kg.
Where [4] appears, read: intravenous, EAMG rats, 1 h, 50 μg/Kg.
[5] abbreviates: intravenous, EAMG rats, 5 h, 50 μg/Kg.
[6] abbreviates: intravenous, EAMG rats, 24 h, 50 μg/Kg.
The mark [7] stands for this setting: oral, EAMG rats, 0 h, 50 μg/Kg oligonucleotide, 1000 μg/Kg pyridostigmine.
[8] abbreviates: oral, EAMG rats, 1 h, 50 μg/Kg oligonucleotide, 1000 μg/Kg pyridostigmine.
[9] abbreviates: oral, EAMG rats, 5 h, 50 μg/Kg oligonucleotide, 1000 μg/Kg pyridostigmine.
The mark [10] stands for this setting: oral, EAMG rats, 24 h, 50 μg/Kg oligonucleotide, 1000 μg/Kg pyridostigmine.

Turning to “5′-GGAGAAGGAGGAGGAGAGGG-3′ (chemistry not given here) [r-invEN102, reference compound]”, the “AChE-R mRNA labeling in muscle” value in the data set with AChE-R mRNA is recorded as “unaffected”. The “Effect on CMAP decline / muscle function in EAMG rats” value in the data set with EAMG rats [1] was “did not improve muscle function”. Further, the “CMAP ratio (5th vs. 1st amplitude)” value is listed as 0.89 ± 0.02 with EAMG rats [1] (setting [3]); 0.89 ± 0.03 with EAMG rats [1] (setting [4]); 0.89 ± 0.02 in the data set on EAMG rats [1] (setting [5]); 0.90 ± 0.02 with EAMG rats [1] (setting [6]); 0.78 ± 0.06 with EAMG rats [1] (setting [7]); 0.86 ± 0.05 in the data set on EAMG rats [1] (setting [8]). Also, the “CMAP ratio (5th vs. 1st amplitude)” value with EAMG rats [1] (setting [9]) is reported as 0.86 ± 0.05; in the data set on EAMG rats [1] (setting [10]) it was 0.81 ± 0.08. Further, the “Effect of oral administration on CMAP decline” value (“Effect of oral administration” below) in the data set on EAMG rats [1] (50 μg/Kg oligonucleotide) is “had no significant effect”.

Take 5′-GGGAGAGGAGGAGGAAGAGG-3′ [rEN102]: the “Effect on CMAP decline / muscle function in EAMG rats” value in the data set on EAMG rats [1] was “induced similar rectification of CMAP decline”. The “CMAP ratio (5th vs. 1st amplitude)” value worked out at 0.85 ± 0.06 in the data set on EAMG rats [1] (setting [3]); 1.04 ± 0.01 in the data set on EAMG rats [1] (setting [4]); 0.98 ± 0.03 in the data set with EAMG rats [1] (setting [5]); 1.00 ± 0.01 in the data set on EAMG rats [1] (setting [6]); 0.82 ± 0.02 with EAMG rats [1] (setting [7]); 0.86 ± 0.04 in the data set on EAMG rats [1] (setting [8]). The “CMAP ratio (5th vs. 1st amplitude)” value amounted to 0.96 ± 0.02 in the data set with EAMG rats [1] (setting [9]) and 0.95 ± 0.03 with EAMG rats [1] (setting [10]). Moreover, the “Effect of oral administration” value with EAMG rats [1] (50 μg/Kg oligonucleotide) was “active in reversing CMAP decline”.

Regarding `CN(C)C(=O)Oc1cccc([N+](C)(C)C)c1` [neostigmine bromide, reference compound], in the data set on EAMG rats [1] (75 μg/kg i.p., EAMG rats), the CMAP after treatment is on record as 107.4 % of the first evoked potential, the “Duration of effect on CMAP” value was found to be 2 h and the “Onset of effect on CMAP after injection” value worked out at 15 min. In addition, the “CMAP after treatment relative to untreated level” value in the data set on EAMG rats [1] (75 μg/kg i.p., EAMG rats, untreated 87.6% of first evoked potential) is reported as “over 120 % of this level”.

For `CN(C)C(=O)Oc1ccc[n+](C)c1` [pyridostigmine, reference compound], the “Effect of oral administration” value in the data set on EAMG rats [1] (50 μg/Kg oligonucleotide) is “restored CMAP for up to several hours”. The “CMAP ratio (5th vs. 1st amplitude)” value in the data set on EAMG rats [1] (setting [7]) amounted to 0.90 ± 0.01; in the data set on EAMG rats [1] (setting [8]) it was 0.98 ± 0.01; with EAMG rats [1] (setting [9]) it was 0.96 ± 0.02; in the data set with EAMG rats [1] (setting [10]), 0.87 ± 0.02. For the same compound, the “CMAP ratio 24 h following single oral administration” value in the data set with EAMG rats [1] (single oral dose, rEN101 50 μg/kg, pyridostigmine 1000 μg/kg) is on record as “returned to the declining baseline”. Also, the “Animals that died within the 5 day experimental course” value in the data set with EAMG rats [2] (EAMG rats treated daily, with repeated anesthesia and CMAP measurements) is listed as 5 out of 6. Moreover, in the data set on EAMG rats [2] (EAMG rats, 1 month daily oral treatment), the “Body weight lost during the treatment period” value was 11 g/animal.
